Legend:
Type in all cases: in vivo
[1] = tested on: blackgrass (Alopecurus myosuroides); experiment: Test C pre-/postemergence greenhouse test, plant response rating 0-100; settings: Postemergence; for Plant response rating, Blackgrass: scale 0 to 100
Procedure, shortened: (§1)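 Visual 0–100 control scores, taken 13 to 15 days post-application in a greenhouse, reflect treatment preemergence (seed in loam soil with sand) or postemergence (2–18 cm plants in peat moss, vermiculite medium). A dash marks no result.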

corn (Zea mays) = experiment: as above; settings: Postemergence; for Plant response rating, Corn: scale 0 to 100
Procedure, shortened: as §1

[2] = tested on: giant foxtail (Setaria faberii); experiment: as above; settings: Postemergence; for Plant response rating, Foxtail, Giant: scale 0 to 100
Procedure, shortened: as §1

[3] = tested on: johnsongrass (Sorghum halepense); experiment: as above; settings: Postemergence; for Plant response rating, Johnsongrass: scale 0 to 100
Procedure, shortened: as §1

[4] = tested on: lambsquarters (Chenopodium album); experiment: as above; settings: Postemergence; for Plant response rating, Lambsquarters: scale 0 to 100
Procedure, shortened: as §1

[5] = tested on: pigweed (Amaranthus retroflexus); experiment: as above; settings: Postemergence; for Plant response rating, Pigweed: scale 0 to 100
Procedure, shortened: as §1

soybean (Glycine max) = experiment: as above; settings: Postemergence; for Plant response rating, Soybean: scale 0 to 100
Procedure, shortened: as §1

[6] = tested on: velvetleaf (Abutilon theophrasti); experiment: as above; settings: Postemergence; for Plant response rating, Velvetleaf: scale 0 to 100
Procedure, shortened: as §1

[7] = tested on: winter wheat (Triticum aestivum); experiment: as above; settings: Postemergence; for Plant response rating, Wheat: scale 0 to 100
Procedure, shortened: as §1

[8] = tested on: chickweed (common chickweed, Stellaria media); experiment: Test C postemergence greenhouse test, plant response rating 0-100; settings: for Plant response rating, Chickweed: scale 0 to 100
Description: (§2) At the same time, plants selected from these crop and weed species and also winter barley (Hordeum vulgare), bermudagrass (Cynodon dactylon), downy bromegrass (Bromus tectorum), canarygrass (Phalaris minor), cocklebur (common cocklebur, Xanthium strumarium), woolly cupgrass (Eriochloa villosa), deadnettle (henbit deadnettle, Lamium amplexicaule), green foxtail (Setaria viridis), goosegrass (Eleusine indica), surinam grass (Brachiaria decumbens), windgrass (Apera spica-venti), chickweed (common chickweed, Stellaria media), kochia (Kochia scoparia), and wild oat (Avena fatua), were planted in pots containing Redi-Earth® planting medium (Scotts Company, 14111 Scottslawn Road, Marysville, Ohio 43041) comprising spaghnum peat moss, vermiculite, wetting agent and starter nutrients and treated with postemergence applications of test chemicals formulated in the same manner. Plants ranged in height from 2 to 18 cm (1- to 4-leaf stage) for postemergence treatments. Treated plants and controls were maintained in a greenhouse for 13 to 15 days, after which time all species were compared to controls and visually evaluated. Plant response ratings, summarized in Table C, are based on a scale of 0 to 100 where 0 is no effect and 100 is complete control. A dash (-) response means no test result.

kochia (Kochia scoparia) = experiment: as above; settings: for Plant response rating, Kochia: scale 0 to 100
Description: as §2

wild oat (Avena fatua) = experiment: as above; settings: for Plant response rating, Oat, Wild: scale 0 to 100
Description: as §2

In the case of Fc1ccccc1NN=C(c1ccccc1)c1c[nH]nc1-c1cc(Cl)cc(Cl)c1 [Compound 57], the “Plant response rating (0 to 100), Blackgrass” value ([1]; 31 g ai/ha) is reported as 0, the “Plant response rating (0 to 100), Blackgrass” value ([1]; 62 g ai/ha) is reported as 0 and the “Plant response rating (0 to 100), Blackgrass” value ([1]; 125 g ai/ha) is reported as 0. The “Plant response rating, Blackgrass” value ([1]; 250 g ai/ha) was 0, the “Plant response rating (0 to 100), Corn” value (corn (Zea mays); 31 g ai/ha) was 0 and the “Plant response rating (0 to 100), Corn” value (corn (Zea mays); 62 g ai/ha) was 0. The “Plant response rating (0 to 100), Corn” value (corn (Zea mays); 125 g ai/ha) was 0, the “Plant response rating, Corn” value (corn (Zea mays); 250 g ai/ha) was 0 and the “Plant response rating (0 to 100), Foxtail, Giant” value ([2]; 31 g ai/ha) was 0. For the same compound, the “Plant response rating (0 to 100), Foxtail, Giant” value ([2]; 62 g ai/ha) was 0, the “Plant response rating (0 to 100), Foxtail, Giant” value ([2]; 125 g ai/ha) was 0 and the “Plant response rating, Foxtail, Giant” value ([2]; 250 g ai/ha) was 5. The “Plant response rating (0 to 100), Johnsongrass” value ([3]; 62 g ai/ha) was 0, the “Plant response rating (0 to 100), Johnsongrass” value ([3]; 125 g ai/ha) was 0 and the “Plant response rating, Johnsongrass” value ([3]; 250 g ai/ha) was 0. For the same compound, the “Plant response rating (0 to 100), Lambsquarters” value ([4]; 62 g ai/ha) was 60, the “Plant response rating (0 to 100), Lambsquarters” value ([4]; 125 g ai/ha) was 100 and the “Plant response rating (0 to 100), Pigweed” value ([5]; 62 g ai/ha) was 70. For the same compound, the “Plant response rating, Pigweed” value ([5]; 250 g ai/ha) was 75, the “Plant response rating (0 to 100), Soybean” value (soybean (Glycine max); 62 g ai/ha) was 0 and the “Plant response rating (0 to 100), Soybean” value (soybean (Glycine max); 125 g ai/ha) was 0. For the same compound, the “Plant response rating, Soybean” value (soybean (Glycine max); 250 g ai/ha) was 0, the “Plant response rating (0 to 100), Velvetleaf” value ([6]; 62 g ai/ha) was 70 and the “Plant response rating (0 to 100), Velvetleaf” value ([6]; 125 g ai/ha) was 80. For the same compound, the “Plant response rating, Velvetleaf” value ([6]; 250 g ai/ha) was 80, the “Plant response rating (0 to 100), Wheat” value ([7]; 62 g ai/ha) was 0 and the “Plant response rating (0 to 100), Wheat” value ([7]; 125 g ai/ha) was 0. For the same compound, the “Plant response rating, Wheat” value ([7]; 250 g ai/ha) was 0, the “Plant response rating (0 to 100), Chickweed” value ([8]; 31 g ai/ha) was 60 and the “Plant response rating (0 to 100), Chickweed” value ([8]; 62 g ai/ha) was 100. The “Plant response rating (0 to 100), Chickweed” value ([8]; 125 g ai/ha) was 100, the “Plant response rating, Chickweed” value ([8]; 250 g ai/ha) was 100 and the “Plant response rating (0 to 100), Kochia” value (kochia (Kochia scoparia); 62 g ai/ha) was 65. The “Plant response rating (0 to 100), Kochia” value (kochia (Kochia scoparia); 125 g ai/ha) was 65, the “Plant response rating, Kochia” value (kochia (Kochia scoparia); 250 g ai/ha) was 80 and the “Plant response rating (0 to 100), Oat, Wild” value (wild oat (Avena fatua); 62 g ai/ha) was 0. The “Plant response rating (0 to 100), Oat, Wild” value (wild oat (Avena fatua); 125 g ai/ha) was 0 and the “Plant response rating, Oat, Wild” value (wild oat (Avena fatua); 250 g ai/ha) was 0.

With Clc1cc(Cl)cc(-c2n[nH]cc2C(=NNc2ccccc2Cl)c2ccccc2)c1 [Compound 66] the “Plant response rating (0 to 100), Blackgrass” value ([1]; 62 g ai/ha) was 0, the “Plant response rating (0 to 100), Blackgrass” value ([1]; 125 g ai/ha) was 0 and the “Plant response rating, Blackgrass” value ([1]; 250 g ai/ha) was 0. The “Plant response rating, Blackgrass” value ([1]; 500 g ai/ha) was 0, the “Plant response rating (0 to 100), Corn” value (corn (Zea mays); 62 g ai/ha) was 0 and the “Plant response rating (0 to 100), Corn” value (corn (Zea mays); 125 g ai/ha) was 0. The “Plant response rating, Corn” value (corn (Zea mays); 250 g ai/ha) was 5, the “Plant response rating, Corn” value (corn (Zea mays); 500 g ai/ha) was 5 and the “Plant response rating (0 to 100), Foxtail, Giant” value ([2]; 62 g ai/ha) was 0. For the same compound, the “Plant response rating (0 to 100), Foxtail, Giant” value ([2]; 125 g ai/ha) was 0, the “Plant response rating, Foxtail, Giant” value ([2]; 250 g ai/ha) was 0 and the “Plant response rating, Foxtail, Giant” value ([2]; 500 g ai/ha) was 0. The “Plant response rating (0 to 100), Johnsongrass” value ([3]; 62 g ai/ha) was 0, the “Plant response rating (0 to 100), Johnsongrass” value ([3]; 125 g ai/ha) was 0 and the “Plant response rating, Johnsongrass” value ([3]; 250 g ai/ha) was 0. The “Plant response rating, Johnsongrass” value ([3]; 500 g ai/ha) was 0, the “Plant response rating (0 to 100), Lambsquarters” value ([4]; 62 g ai/ha) was 40 and the “Plant response rating (0 to 100), Lambsquarters” value ([4]; 125 g ai/ha) was 50. The “Plant response rating, Lambsquarters” value ([4]; 250 g ai/ha) was 90, the “Plant response rating, Lambsquarters” value ([4]; 500 g ai/ha) was 90 and the “Plant response rating (0 to 100), Pigweed” value ([5]; 62 g ai/ha) was 55. The “Plant response rating (0 to 100), Pigweed” value ([5]; 125 g ai/ha) was 85, the “Plant response rating, Pigweed” value ([5]; 250 g ai/ha) was 95 and the “Plant response rating, Pigweed” value ([5]; 500 g ai/ha) was 100. For the same compound, the “Plant response rating (0 to 100), Soybean” value (soybean (Glycine max); 62 g ai/ha) was 0, the “Plant response rating (0 to 100), Soybean” value (soybean (Glycine max); 125 g ai/ha) was 0 and the “Plant response rating, Soybean” value (soybean (Glycine max); 250 g ai/ha) was 0. For the same compound, the “Plant response rating, Soybean” value (soybean (Glycine max); 500 g ai/ha) was 5, the “Plant response rating (0 to 100), Velvetleaf” value ([6]; 62 g ai/ha) was 55 and the “Plant response rating (0 to 100), Velvetleaf” value ([6]; 125 g ai/ha) was 55. For the same compound, the “Plant response rating, Velvetleaf” value ([6]; 250 g ai/ha) was 80, the “Plant response rating, Velvetleaf” value ([6]; 500 g ai/ha) was 90 and the “Plant response rating (0 to 100), Wheat” value ([7]; 62 g ai/ha) was 0. For the same compound, the “Plant response rating (0 to 100), Wheat” value ([7]; 125 g ai/ha) was 0, the “Plant response rating, Wheat” value ([7]; 250 g ai/ha) was 0 and the “Plant response rating, Wheat” value ([7]; 500 g ai/ha) was 0. The “Plant response rating (0 to 100), Chickweed” value ([8]; 62 g ai/ha) was 100, the “Plant response rating (0 to 100), Chickweed” value ([8]; 125 g ai/ha) was 100 and the “Plant response rating, Chickweed” value ([8]; 250 g ai/ha) was 100. For the same compound, the “Plant response rating, Chickweed” value ([8]; 500 g ai/ha) was 100, the “Plant response rating (0 to 100), Kochia” value (kochia (Kochia scoparia); 62 g ai/ha) was 60 and the “Plant response rating (0 to 100), Kochia” value (kochia (Kochia scoparia); 125 g ai/ha) was 65. The “Plant response rating, Kochia” value (kochia (Kochia scoparia); 250 g ai/ha) was 75, the “Plant response rating, Kochia” value (kochia (Kochia scoparia); 500 g ai/ha) was 95 and the “Plant response rating (0 to 100), Oat, Wild” value (wild oat (Avena fatua); 62 g ai/ha) was 0. For the same compound, the “Plant response rating (0 to 100), Oat, Wild” value (wild oat (Avena fatua); 125 g ai/ha) was 0, the “Plant response rating, Oat, Wild” value (wild oat (Avena fatua); 250 g ai/ha) was 0 and the “Plant response rating, Oat, Wild” value (wild oat (Avena fatua); 500 g ai/ha) was 0.
